Experimental data: PMC11024869, “The activity of antimicrobial peptoids against multidrug-resistant ocular pathogens” (Contact lens & anterior eye : the journal of the British …, 2024)
Converted amounts (≈) assume the structure as drawn. Non-standard residues stand in square brackets, D forms with d. Residues, ends and D or L forms follow the SMILES beside them. Nspe = C[C@H](NCC(=O)O)c1ccccc1; Nlys = NCCCCNCC(=O)O

Columns and labels:
Type in all cases: cell-based
[1] = system: Pseudomonas aeruginosa PA235; settings: PA235; MHB, 24 h 37 °C; ≥99.99 % reduction in CFUs
Source text: (§3) The S. pneumoniae strains used were SP04, SP06 and SP07 [46] and Streptococcus gallolyticus SV06 (all isolated from eyes of contact lens wearers during adverse events); P. aeruginosa PAO1 (which was originally isolated from a wound, and is an invasive strain containing the gene exoS) as well as isolates from microbial keratitis, PA 235 (invasive strain containing exoS), PA216 (a cytotoxic strain containing exoU), PA219 (cytotoxic strain containing exoU), PA 233 (cytotoxic strain containing exoU), with various susceptibilities to antibiotics were also used [14]. C. albicans ATCC 10231, a yeast, isolated from case of a human bronchomycosis, was also evaluated.
(§4) The peptoids’ minimum inhibitory and bactericidal concentrations (MIC and MBC) were determined using micro broth dilution methods as previously described with slight modifications, [26, 39, 49, 50], and without using acetic acid and bovine serum albumin [39]. Briefly, bacteria or yeast were suspended in Muller Hinton broth (MHB, Oxoid, Thermo Fisher Scientific, Thebarton, SA, Australia) at 0.1 OD660nm, which was equivalent to 1x10^8 colony forming units (CFU) mL^−1. This suspension was further diluted to achieve 5x10^6 CFU mL^−1. The peptoids were diluted in MHB from 250 to 0.24 μg mL^−1 in 96-well polystyrene microplates (COSTAR, Corning Incorporated, New York, NY, USA) [39]. […] This was followed by addition of 100 μL of each microbial suspensions. Wells with only bacteria or the yeast were treated as a negative control, and wells with only MHB medium were treated as a blank. The plates were incubated at 37 °C with shaking at 120 rpm for 24 h. After incubation, the media in each well was serially diluted in phosphate buffered solution and then inoculated onto tryptone soya agar (Oxoid) plates for bacteria, or Sabouraud’s dextrose agar for the yeast, and incubated at 37 °C for 18 hrs. Post incubation, the number of CFUs on the agar plates was counted.

[2] = system: Pseudomonas aeruginosa PAO1; settings: PAO1, MHB
Source text: as §3, §4

horse erythrocytes = experiment: In vitro assay for hemolysis, horse blood
Description: (§1) Hemolysis caused by the peptoids was measured using 18 to 20 mL of a horse or human blood collected in EDTA-coated tubes which has been centrifuged at 500×g for 5 min. The supernatant was discarded and the pellet containing the cells were resuspended in PBS to a final volume of 20 mL. This step was repeated five times. After the final wash, the pellet was resuspended in PBS at the ratio of 1:10 (1 mL red blood cell: 9 mL PBS) to yield a final red blood cell (RBC) concentration of approximately 5 × 10^8 cells mL^−1. The concentration of RBCs was confirmed using a hemocytometer. The peptoids (stock concentration 2 mM) were diluted sequentially (two-fold dilutions) in PBS to final concentrations of […]. All the dilutions were subsequently mixed with the RBC suspension at the ratio of 1:1. MilliQ water was used as a positive control and PBS was used as a negative control in this assay. All samples were incubated at 37 °C for 3 h. Following incubation, the tubes were centrifuged at 500 x g for five mins, the supernatants were collected, transferred to wells in a 96 well plate and their optical density was measured at 540 nm. The percentage of hemolysis was calculated by dividing the absorbance of the test sample by the absorbance of the positive control, and multiplying by 100. Data are presented as the hemolysis caused by each dilution of peptoid, and as the concentration of peptoid that caused 10 % or 50 % lysis of red blood cells.
(§2) The geometric mean is the nth root of the multiplied numbers, where n is the total number of data values. A similar formula was used to calculate the selectivity ratio, but by using the concentration of peptoid that caused 10 % hemolysis.

[3] = system: Staphylococcus aureus SA117; settings: SA117, MHB, 24 h 37 °C
Source text: as §3, §4

[4] = system: Pseudomonas aeruginosa PA233; settings: PA233, MHB, 24 h 37 °C
Source text: All S. aureus strains used were isolated from cases of microbial keratitis (Table 1) with various susceptibilities to antibiotics. The S. pneumoniae strains used were SP04, SP06 and SP07 [46] and Streptococcus gallolyticus SV06 (all isolated from eyes of contact lens wearers during adverse events); P. aeruginosa PAO1 (which was originally isolated from a wound, and is an invasive strain containing the gene exoS) as well as isolates from microbial keratitis, PA 235 (invasive strain containing exoS), PA216 (a cytotoxic strain containing exoU), PA219 (cytotoxic strain containing exoU), PA 233 (cytotoxic strain containing exoU), with various susceptibilities to antibiotics were also used. C. albicans ATCC 10231, a yeast, isolated from case of a human bronchomycosis, was also evaluated.
The peptoids’ minimum inhibitory and bactericidal concentrations (MIC and MBC) were determined using micro broth dilution methods as previously described with slight modifications, [26, 39, 49, 50], and without using acetic acid and bovine serum albumin [39]. Briefly, bacteria or yeast were suspended in Muller Hinton broth (MHB, Oxoid, Thermo Fisher Scientific, Thebarton, SA, Australia) at 0.1 OD660nm, which was equivalent to 1x10^8 colony forming units (CFU) mL^−1. This suspension was further diluted to achieve 5x10^6 CFU mL^−1. The peptoids were diluted in MHB from 250 to 0.24 μg mL^−1 in 96-well polystyrene microplates (COSTAR, Corning Incorporated, New York, NY, USA). This range was selected to cover the range of MIC values previously reported for ESKAPE pathogens. This was followed by addition of 100 μL of each microbial suspensions. Wells with only bacteria or the yeast were treated as a negative control, and wells with only MHB medium were treated as a blank. The plates were incubated at 37 °C with shaking at 120 rpm for 24 h. After incubation, the media in each well was serially diluted in phosphate buffered solution and then inoculated onto tryptone soya agar (Oxoid) plates for bacteria, or Sabouraud’s dextrose agar for the yeast, and incubated at 37 °C for 18 hrs. Post incubation, the number of CFUs on the agar plates was counted.

[5] = system: Staphylococcus aureus SA34; settings: SA34, MHB, 24 h 37 °C
Source text: as §3, §4

[6] = system: Streptococcus pneumoniae SP07; settings: SP07, MHB, 24 h 37 °C
Source text: as §3, §4

[7] = system: viridans group streptococcus SV06; settings: SV06, MHB, 24 h 37 °C
Source text: as §3, §4

[8] = system: Candida albicans ATCC 10231; experiment: MIC/MBC (fungicidal) micro broth dilution; settings: ATCC 10231 (yeast); MHB, 24 h 37 °C; ≥99.99 % reduction in CFUs
Source text: as §3, §4

[9] = system: Streptococcus pneumoniae SP04; settings: SP04, MHB, 24 h 37 °C
Source text: as §3, §4

[10] = system: Streptococcus gallolyticus SG04; settings: SG04, MHB, 24 h 37 °C
Source text: as §3, §4

[11] = system: Staphylococcus aureus SA114; settings: SA114, MHB, 24 h 37 °C
Source text: as §3, §4

[12] = system: Pseudomonas aeruginosa PA219; settings: PA219, MHB, 24 h 37 °C
Source text: as §3, §4

human erythrocytes = experiment: In vitro assay for hemolysis, human blood
Description: as §1, §2

[13] = system: Pseudomonas aeruginosa PA216; settings: PA216, MHB, 24 h 37 °C
Source text: as §3, §4

[14] = system: Streptococcus pneumoniae SP06; settings: SP06, MHB, 24 h 37 °C
Source text: as §3, §4

[15] = system: Staphylococcus aureus SA65; settings: SA65, MHB, 24 h 37 °C
Source text: as §3, §4

[16] = system: Staphylococcus aureus SA113; settings: SA113, MHB, 24 h 37 °C
Source text: as §3, §4

With C[C@@H](c1ccccc1)N(CC(N)=O)C(=O)CN(C(=O)CN(CCCCN)C(=O)CN(C(=O)CN(C(=O)CN(CCCCN)C(=O)CN(C(=O)CN(C(=O)CN(CCCCN)C(=O)CN(C(=O)CN(C(=O)CNCCCCN)[C@@H](C)c1ccccc1)[C@@H](C)c1ccccc1)[C@@H](C)c1ccccc1)[C@@H](C)c1ccccc1)[C@@H](C)c1ccccc1)[C@@H](C)c1ccccc1)[C@@H](C)c1ccccc1 [TM1] (H-[Nlys][Nspe][Nspe][Nlys][Nspe][Nspe][Nlys][Nspe][Nspe][Nlys][Nspe][Nspe]-NH2) the MBC [1] was 31(17)/31(17) μg mL^−1, the MIC ([2]; 5x10^6 CFU mL^−1, 24 h 37 °C, ≥90 % reduction in CFUs) was 7.8 µg/mL (≈ 4.29 µM) and the MBC ([2]; 24 h 37 °C, ≥99.99 % reduction in CFUs) was 15 µg/mL (≈ 8.24 µM). The “Horse HC10” value (horse erythrocytes; concentration causing 10 % lysis of horse red blood cells, PBS, 3 h 37 °C, OD 540 nm) was 4 µM, the “Horse HC50” value (horse erythrocytes; concentration causing 50 % lysis of horse red blood cells, PBS, 3 h 37 °C, OD 540 nm) was 45 µM and the “SR horse blood (ratio HC10 to geometric mean MIC)” value (horse erythrocytes; selectivity ratio) was 1. For the same molecule, the “TI horse blood (ratio HC50 to geometric mean MIC)” value (horse erythrocytes; therapeutic index) was 11, the MIC ([3]; ≥90 % reduction in CFUs) was 7.8 µg/mL (≈ 4.29 µM) and the MBC ([3]; ≥99.99 % reduction in CFUs) was 15 µg/mL (≈ 8.24 µM). For the same molecule, the MIC ([4]; ≥90 % reduction in CFUs) was 15(8.6)/15(8.6) μg mL^−1, the MBC ([4]; ≥99.99 % reduction in CFUs) was 15(8.6)/15(8.6) μg mL^−1 and the MIC ([5]; ≥90 % reduction in CFUs) was 7.8 µg/mL (≈ 4.29 µM). For the same molecule, the MBC ([5]; ≥99.99 % reduction in CFUs) was 15 µg/mL (≈ 8.24 µM), the MIC ([6]; ≥90 % reduction in CFUs) was 15(8.6)/15(8.6) μg mL^−1 and the MBC ([6]; ≥99.99 % reduction in CFUs) was 15(8.6)/15(8.6) μg mL^−1. For the same molecule, the MIC ([7]; ≥90 % reduction in CFUs) was 3.9 µg/mL (≈ 2.14 µM), the MBC ([7]; ≥99.99 % reduction in CFUs) was 7.8 µg/mL (≈ 4.29 µM) and the “MBC (minimum fungicidal concentration)” value [8] was 3.9(2.2)/3.9(2.2) μg mL^−1. For the same molecule, the MIC ([9]; ≥90 % reduction in CFUs) was 1.9(1.1)/1.9(1.1) μg mL^−1, the MBC ([9]; ≥99.99 % reduction in CFUs) was 1.9(1.1)/1.9(1.1) μg mL^−1 and the MIC ([10]; ≥90 % reduction in CFUs) was 3.9 µg/mL (≈ 2.14 µM). For the same molecule, the MBC ([10]; ≥99.99 % reduction in CFUs) was 7.8 µg/mL (≈ 4.29 µM), the MIC ([11]; ≥90 % reduction in CFUs) was 7.8(4.3)/7.8(4.3) μg mL^−1 and the MBC ([11]; ≥99.99 % reduction in CFUs) was 7.8(4.3)/7.8(4.3) μg mL^−1. The MIC ([12]; ≥90 % reduction in CFUs) was 15 µg/mL (≈ 8.24 µM), the MBC ([12]; ≥99.99 % reduction in CFUs) was 31 µg/mL (≈ 17 µM) and the “Human HC10” value (human erythrocytes; concentration causing 10 % lysis of human red blood cells, PBS, 3 h 37 °C, OD 540 nm) was 8 µM. The “Human HC50” value (human erythrocytes; concentration causing 50 % lysis of human red blood cells, PBS, 3 h 37 °C, OD 540 nm) was 49 µM, the “SR human blood (ratio HC10 to geometric mean MIC)” value (human erythrocytes; selectivity ratio) was 2 and the “TI human blood (ratio HC50 to geometric mean MIC)” value (human erythrocytes; therapeutic index) was 12. It also gave an MIC ([13]; ≥90 % reduction in CFUs) of 15 µg/mL (≈ 8.24 µM), an MBC ([13]; ≥99.99 % reduction in CFUs) of 31 µg/mL (≈ 17 µM) and an MIC ([14]; ≥90 % reduction in CFUs) of 3.9 µg/mL (≈ 2.14 µM). For the same molecule, the MBC ([14]; ≥99.99 % reduction in CFUs) was 7.8 µg/mL (≈ 4.29 µM), the MIC ([15]; ≥90 % reduction in CFUs) was 3.9(2.2)/3.9(2.2) μg mL^−1 and the MBC ([15]; ≥99.99 % reduction in CFUs) was 3.9(2.2)/3.9(2.2) μg mL^−1. It also gave an MIC ([16]; ≥90 % reduction in CFUs) of 3.9 µg/mL (≈ 2.14 µM) and an MBC ([16]; ≥99.99 % reduction in CFUs) of 7.8 µg/mL (≈ 4.29 µM).
